# Results from patent EP4725956A1, “MODIFIED POLYPEPTIDE AND USE THEREOF IN FIELD OF ANALGESIA” (Nanjing Anji Biotechnology Co., Ltd., priority 2023, dated 2024).
# Positions of bridges follow the written chain, without caps; N, C: chain ends. Non-standard residues stand in square brackets, D forms with d. Residues, ends and D or L forms follow the SMILES beside them. Bip = N[C@@H](Cc1ccc(-c2ccccc2)cc1)C(=O)O; Hyp = O=C(O)[C@@H]1C[C@@H](O)CN1; Nle = CCCC[C@H](N)C(=O)O; Orn = NCCC[C@H](N)C(=O)O; Aib = CC(C)(N)C(=O)O
# Tests used:
# [1] = In vitro plasma stability and predicted half-life (HPLC main peak area, Example 3); assay type: in vitro ADME; conditions: human plasma (EDTA anticoagulant), 37°C, sampled up to 24 h, predicted half-life calculated with Winolin
# Method in brief: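 Peptides (10 mg in 5 mL human EDTA plasma) incubated at 37°C, sampled from 0 min up to 24 h. Samples quenched with acetonitrile, centrifuged and analysed by HPLC for main peak area; in vitro half-life predicted from peak-area decline by pharmacokinetic fitting.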
# [2] = system: mouse oxaliplatin-induced acute chemotherapy pain model; assay: Mouse oxaliplatin chemotherapy pain model, different doses (Example 7); assay type: in vivo
# Description: Oxaliplatin was dissolved in 5% glucose solution to a concentration of 1 mg/mL. For model induction, each male C57 mouse (Hangzhou Ziyuan Experimental Animal Technology Co., Ltd.) received a single intraperitoneal injection of oxaliplatin at 10 mg/kg. Mice in the negative control or blank control group received 5% glucose solution. Approximately one week after model induction, mechanical pain thresholds of the mice were measured three times per mouse, and the average value was calculated. Mice were then randomly assigned to groups based on their pain thresholds. Drug administration was carried out according to the dosing schedule shown in Table 6, with a single dose per mouse. Mechanical pain thresholds were measured at 0.5, 1, 2, 4, 6, and 8 h post-dose. […] Table 6 Dosing Scheme for Oxaliplatin Chemotherapy Pain Model
# rat CCI model = assay: Rat CCI (chronic constriction injury) model (Example 9); assay type: in vivo
# From the text: Neuropathic pain has many types, and animal models can simulate clinical neuropathic pain. Common SD rat sciatic nerve neuropathic pain models include CCI (Chronic Constriction Injury), SNI (Spared Nerve Injury), SNL (Spinal Nerve Ligation), and CCD (using stainless steel wire through the intervertebral foramen to fix and compress the dorsal root ganglion). Among them, the CCI model is widely used to study neuropathic pain, providing a basis for further research on mechanisms and strategies for nerve injury repair (Wen Xiaojun, Medical Information, Jan. 2018, Vol. 31, No.1). In this example, the CCI model was employed.
# Except for the control group, the remaining SD rats were anesthetized via intraperitoneal injection of 10% chloral hydrate saline solution at a dose of 0.3 mL per 100 g body weight, and surgical modeling was performed. The right hind limb skin was carefully incised, muscles were separated, and the sciatic nerve was ligated three times using 4-0 surgical silk, spaced 1 mm apart. Muscles and skin were sutured, and antibiotics were applied to the wound to prevent infection. […] Approximately 10 days post-surgery, plantar pain thresholds were measured three times for each rat, and the average value was calculated. Rats were randomly assigned to groups based on pain thresholds. Drug administration was performed according to Table 8, and plantar pain thresholds were measured at 2 h, 4 h, 6 h, and 8 h after administration.
compound,measurement,setting,value
"CCCC[C@H](NC(=O)[C@@H](NC(=O)[C@H]1CSSC[C@H](NC(=O)[C@H](CO)NC(=O)CN)C(=O)N[C@@H](CO)C(=O)N[C@H]([C@H](C)O)C(=O)N2C[C@H](O)C[C@H]2C(=O)N2C[C@H](O)C[C@H]2C(=O)NC(C)(C)C(=O)N1)C(C)C)C(=O)N[C@@H](Cc1ccc(-c2ccccc2)cc1)C(=O)N[C@@H](CCCN)C(N)=O [AJ003-36, GSCS-(D-Thr)-Hyp-Hyp-Aib-(D-Cys)-V-Nle-Bip-Orn-NH2 (3,9 disulfide bond)] (H-GSCS[dT][Hyp][Hyp][Aib][dC]V[Nle][Bip][Orn]-NH2; disulfide 3-9)",half-life at 2 mg/mL,[1],65.3 h
same,analgesic activity compared with the model group (mechanical pain threshold),"[2]; single dose, 0.5, 1, 2 and 4 h post-dose, 1 mg/kg s.c. (low dose)",significant analgesic activity
same,analgesic activity compared with the model group (mechanical pain threshold),"[2]; single dose, 0.5, 1, 2 and 4 h post-dose, 2 mg/kg s.c. (AJ003; AJ003-36 medium dose)",significant analgesic activity
same,analgesic activity compared with the model group (mechanical pain threshold),"[2]; single dose, 0.5, 1, 2 and 4 h post-dose, 3 mg/kg s.c. (high dose)",significant analgesic activity
same,analgesic activity compared with the model group (mechanical pain threshold),"[2]; single dose, 6 h post-dose, 1 mg/kg s.c. (low dose)",significant analgesic activity
same,analgesic activity compared with the model group (mechanical pain threshold),"[2]; single dose, 6 h post-dose, 2 mg/kg s.c. (AJ003; AJ003-36 medium dose)",significant analgesic activity
same,analgesic activity compared with the model group (mechanical pain threshold),"[2]; single dose, 6 h post-dose, 3 mg/kg s.c. (high dose)",significant analgesic activity
same,analgesic activity compared with the model group (mechanical pain threshold),"[2]; single dose, 8 h post-dose, 1 mg/kg s.c. (low dose)",no significant effect
same,analgesic activity compared with the model group (mechanical pain threshold),"[2]; single dose, 8 h post-dose, 2 mg/kg s.c. (AJ003; AJ003-36 medium dose)",significant analgesic activity
same,analgesic activity compared with the model group (mechanical pain threshold),"[2]; single dose, 8 h post-dose, 3 mg/kg s.c. (high dose)",significant analgesic activity
same,analgesic activity compared with the model group (mechanical pain threshold),"rat CCI model; Day 1 of dosing, 2 h and 4 h, 0.5 mg/kg s.c. (low dose)",significant analgesic activity
same,analgesic activity compared with the model group (mechanical pain threshold),"rat CCI model; Day 1 of dosing, 2 h and 4 h, 1 mg/kg s.c. (AJ003; AJ003-36 medium dose)",significant analgesic activity
same,analgesic activity compared with the model group (mechanical pain threshold),"rat CCI model; Day 1 of dosing, 2 h and 4 h, 2 mg/kg s.c. (high dose)",significant analgesic activity
same,analgesic activity compared with the model group (mechanical pain threshold),"rat CCI model; Day 1 of dosing, 6 h, 0.5 mg/kg s.c. (low dose)",significant analgesic activity
same,analgesic activity compared with the model group (mechanical pain threshold),"rat CCI model; Day 1 of dosing, 6 h, 1 mg/kg s.c. (AJ003; AJ003-36 medium dose)",significant analgesic activity
same,analgesic activity compared with the model group (mechanical pain threshold),"rat CCI model; Day 1 of dosing, 6 h, 2 mg/kg s.c. (high dose)",significant analgesic activity
same,analgesic activity compared with the model group (mechanical pain threshold),"rat CCI model; Day 1 of dosing, 8 h, 0.5 mg/kg s.c. (low dose)",not significantly different
same,analgesic activity compared with the model group (mechanical pain threshold),"rat CCI model; Day 1 of dosing, 8 h, 1 mg/kg s.c. (AJ003; AJ003-36 medium dose)",significant analgesic activity
same,analgesic activity compared with the model group (mechanical pain threshold),"rat CCI model; Day 1 of dosing, 8 h, 2 mg/kg s.c. (high dose)",significant analgesic activity
same,analgesic activity compared with the model group (mechanical pain threshold),"rat CCI model; Day 4 of dosing, 2 h and 4 h, 0.5 mg/kg s.c. (low dose)",significant analgesic activity
same,analgesic activity compared with the model group (mechanical pain threshold),"rat CCI model; Day 4 of dosing, 2 h and 4 h, 1 mg/kg s.c. (AJ003; AJ003-36 medium dose)",significant analgesic activity
same,analgesic activity compared with the model group (mechanical pain threshold),"rat CCI model; Day 4 of dosing, 2 h and 4 h, 2 mg/kg s.c. (high dose)",significant analgesic activity
same,analgesic activity compared with the model group (mechanical pain threshold),"rat CCI model; Day 4 of dosing, 6 h and 8 h, 0.5 mg/kg s.c. (low dose)",no longer significant
same,analgesic activity compared with the model group (mechanical pain threshold),"rat CCI model; Day 4 of dosing, 6 h and 8 h, 1 mg/kg s.c. (AJ003; AJ003-36 medium dose)",remained significant
same,analgesic activity compared with the model group (mechanical pain threshold),"rat CCI model; Day 4 of dosing, 6 h and 8 h, 2 mg/kg s.c. (high dose)",remained significant
same,analgesic activity compared with the model group (mechanical pain threshold),"rat CCI model; Day 7 of dosing, 2 h and 4 h, 0.5 mg/kg s.c. (low dose)",significant analgesic activity
same,analgesic activity compared with the model group (mechanical pain threshold),"rat CCI model; Day 7 of dosing, 2 h and 4 h, 1 mg/kg s.c. (AJ003; AJ003-36 medium dose)",significant analgesic activity
same,analgesic activity compared with the model group (mechanical pain threshold),"rat CCI model; Day 7 of dosing, 2 h and 4 h, 2 mg/kg s.c. (high dose)",significant analgesic activity
same,analgesic activity compared with the model group (mechanical pain threshold),"rat CCI model; Day 7 of dosing, 6 h, 0.5 mg/kg s.c. (low dose)",still significant
same,analgesic activity compared with the model group (mechanical pain threshold),"rat CCI model; Day 7 of dosing, 6 h, 1 mg/kg s.c. (AJ003; AJ003-36 medium dose)",still significant
same,analgesic activity compared with the model group (mechanical pain threshold),"rat CCI model; Day 7 of dosing, 6 h, 2 mg/kg s.c. (high dose)",still significant
same,analgesic activity compared with the model group (mechanical pain threshold),"rat CCI model; Day 7 of dosing, 8 h, 0.5 mg/kg s.c. (low dose)",not significant
same,analgesic activity compared with the model group (mechanical pain threshold),"rat CCI model; Day 7 of dosing, 8 h, 1 mg/kg s.c. (AJ003; AJ003-36 medium dose)",remained significant
same,analgesic activity compared with the model group (mechanical pain threshold),"rat CCI model; Day 7 of dosing, 8 h, 2 mg/kg s.c. (high dose)",remained significant
same,analgesic activity compared with the model group (mechanical pain threshold),"rat CCI model; Day 10 of dosing, 2 h and 4 h, 0.5 mg/kg s.c. (low dose)",significant analgesic activity
same,analgesic activity compared with the model group (mechanical pain threshold),"rat CCI model; Day 10 of dosing, 2 h and 4 h, 1 mg/kg s.c. (AJ003; AJ003-36 medium dose)",significant analgesic activity
same,analgesic activity compared with the model group (mechanical pain threshold),"rat CCI model; Day 10 of dosing, 2 h and 4 h, 2 mg/kg s.c. (high dose)",significant analgesic activity
same,analgesic activity compared with the model group (mechanical pain threshold),"rat CCI model; Day 10 of dosing, 6 h, 0.5 mg/kg s.c. (low dose)",remained significant
same,analgesic activity compared with the model group (mechanical pain threshold),"rat CCI model; Day 10 of dosing, 6 h, 1 mg/kg s.c. (AJ003; AJ003-36 medium dose)",remained significant
same,analgesic activity compared with the model group (mechanical pain threshold),"rat CCI model; Day 10 of dosing, 6 h, 2 mg/kg s.c. (high dose)",remained significant
same,analgesic activity compared with the model group (mechanical pain threshold),"rat CCI model; Day 10 of dosing, 8 h, 0.5 mg/kg s.c. (low dose)",not significant
same,analgesic activity compared with the model group (mechanical pain threshold),"rat CCI model; Day 10 of dosing, 8 h, 1 mg/kg s.c. (AJ003; AJ003-36 medium dose)",remained significant
same,analgesic activity compared with the model group (mechanical pain threshold),"rat CCI model; Day 10 of dosing, 8 h, 2 mg/kg s.c. (high dose)",remained significant
same,analgesic activity compared with the model group (mechanical pain threshold),"rat CCI model; Day 14 of dosing, 2 h and 4 h, 0.5 mg/kg s.c. (low dose)",significant analgesic activity
same,analgesic activity compared with the model group (mechanical pain threshold),"rat CCI model; Day 14 of dosing, 2 h and 4 h, 1 mg/kg s.c. (AJ003; AJ003-36 medium dose)",significant analgesic activity
same,analgesic activity compared with the model group (mechanical pain threshold),"rat CCI model; Day 14 of dosing, 2 h and 4 h, 2 mg/kg s.c. (high dose)",significant analgesic activity
same,analgesic activity compared with the model group (mechanical pain threshold),"rat CCI model; Day 14 of dosing, 6 h, 0.5 mg/kg s.c. (low dose)",remained significant
same,analgesic activity compared with the model group (mechanical pain threshold),"rat CCI model; Day 14 of dosing, 6 h, 1 mg/kg s.c. (AJ003; AJ003-36 medium dose)",remained significant
same,analgesic activity compared with the model group (mechanical pain threshold),"rat CCI model; Day 14 of dosing, 6 h, 2 mg/kg s.c. (high dose)",remained significant
same,analgesic activity compared with the model group (mechanical pain threshold),"rat CCI model; Day 14 of dosing, 8 h, 0.5 mg/kg s.c. (low dose)",not significant
same,analgesic activity compared with the model group (mechanical pain threshold),"rat CCI model; Day 14 of dosing, 8 h, 1 mg/kg s.c. (AJ003; AJ003-36 medium dose)",remained significant
same,analgesic activity compared with the model group (mechanical pain threshold),"rat CCI model; Day 14 of dosing, 8 h, 2 mg/kg s.c. (high dose)",remained significant
